{"source": "patent US12590057B2", "about": "“Crystalline complexes” (Theracryf PLC, priority 2020, dated 2026)", "format_in_all_cases": "physicochemical", "key": {"[1]": {"assay": "Variable humidity XRPD (VH-XRPD) at 25° C.", "details": "25° C.", "from_the_text": "Non-ambient conditions: XRPD diffractograms were collected on a PANalytical Empyrean diffractometer using Cu Kα radiation (45 kV, 40 mA) in reflection geometry. The instrument is fitted with an Anton Paar CHC plus^+ stage fitted with graphite/Kapton windows and equipped with air cooling coupled with a proUmid MHG32 Modular Humidity Generator or a low vacuum pump system using an Edwards RV3 pump. A programmable divergence slit (in automatic mode), with a 10 mm fixed incident beam mask, Ni filter and 0.04 rad Soller slits were used on the incident beam. A PIXcel^3D detector, placed on the diffracted beam, was fitted with a programmable anti-scatter slit (in automatic mode) and 0.04 rad Soller slits. The software used for data collection was X'Pert Data Collector and the data analysed and presented using Diffrac Plus EVA or Highscore Plus. For variable humidity (VH-XRPD) experiments the samples were prepared and analysed in an Anton Paar chromed low-profile sample holder with silicon wafer insert. The measurement parameters are as per the standard screening data collection method (detailed above). For all variable humidity XRPD experiments, a pattern was recorded every hour. […] The Form 1 sample was loaded into the VH chamber, which was set to 40% RH and 25° C. and then the RH was decreased in 10% decrements to 10% RH followed by increasing the RH in 10% increments to 90% RH, while maintaining the temperature at 25° C. […] The sample then quickly transitioned from Form 1 at 80% RH to Form 2 at 90% RH. A variable humidity (VH) XRPD experiment was performed to examine how Form 3 exists under different RH conditions. […] The sample was stable as Form 2 for 8 hours at 80% RH. At 90% RH Form 2 existed for 2 hours before the sample deliquesced in the humidity chamber."}, "[2]": {"assay": "Typical water content of the crystalline forms", "method": "The water content of a sample can be determined by any suitable means as will be apparent to one of skill in the art. In one embodiment, the water content is determined by Karl-Fischer titration. In one embodiment, the water content is determined by thermogravimetric analysis (TGA). In one embodiment, the water content is determined by gravimetric vapour sorption (GVS). After formation of the crystalline complex according to the invention, the water content may be as low as 1-3% w/w. However, after exposure of the complex to ambient conditions (25° C., 40% RH) the material typically equilibrates (e.g. over a period of 3-7 days) to a water content of up to 5-7% w/w. It has been found, however, that Form 3, once equilibrated to 5-7% w/w water, maintains physical form at 60% RH making it unexpectedly stable over the 0% and 60% humidity range."}, "[3]": {"assay": "Preliminary stability study, related substances by HPLC", "method": "Analysis of samples of sulforaphane:alpha-cyclodextrin complexes as prepared herein were carried out by HPLC according to the following method: • Column—Phenomenex Gemini C18, 5 μm, 110 Å, 250×4.6 mm; • Mobile Phase A: Water (+0.1% TFA); • Mobile Phase B: Acetonitrile (+0.1% TFA); • Flow: 1.5 mL/min; • Injection Volume: 10 μL; • Column Temperature: 25° C.; • Run Time: 40 minutes; • Sample preparation—Accurately weighed and transferred about 320 mg±30 mg of the sample to a 25-mL volumetric flask, added about 15 mL of diluent (70% water, 30% acetonitrile, 0.1% TFA) and mixed until dissolved. Diluted to volume with diluent and mixed. Transferred 3-4 mL to a syringe and filtered using a 0.45 PTFE filter, discarding the first 1-2 ml, and filtered into an autosampler vial and sealed with PTFE lined cap (prepared in duplicate); • HPLC Gradient according to Table 12\nSulforaphane and certain related impurity peaks are summarised in Table 13, Characterisation of the impurities was carried out by LC-MS and ^1H-NMR. Relative Retention Times (RRT) are based on the HPLC method described above.\nSamples of Form 1 (batch ref. LS19-0004-S-8002), Form 3 prepared by minimally-agitated drying (Example 5.3; batch ref. 491-PAL-18) and Form 3 prepared by continuously-agitated filter drying (Example 5B—trial 5; batch ref. 00173-005) were stored at 5° C. (Table 14) and at 25° C./60% RH (Table 15) for 8 weeks in 60 ml Duma® bottles fitted with 45 mm Duma® caps and samples were analysed by HPLC according to the above method."}, "[4]": {"assay": "KF water content of stability samples", "details": "Duma bottles without desiccant", "method": "The water content of each sample was measured on a Metrohm 874 Oven Sample Processor at 150° C. with 851 Titrano Coulometer using Hydranal Coulomat AG oven reagent and nitrogen purge. Weighed solid samples were introduced into a sealed sample vial. Approximately 10 mg of sample was used per titration and duplicate determinations were made. […] Data collection and analysis were performed using Tiamo software.\nThe water content of samples of Form 1 (batch ref. LS19-0004-3-8002), Form 3 prepared by minimally-agitated drying ([…]; batch ref. 491-PAL-18) and Form 3 prepared by continuously-agitated filter drying (Example 5B trial 5; batch ref. 00173-005) was analysed by KF at the start of the stability study (initial) and after 2, 4 and 8 weeks storage in 60 ml Duma® bottles fitted with 45 mm Duma® caps (without desiccant) at 25° C./60% RH—see Table 16;\nIn a separate study, samples of Form 3 (Example 5.3; batch ref. 491-PAL-18) having an initial water content by KF of 2.3% w/w were tested for water content at various time points after storage double bagged in a HDPE bottle under various conditions as shown in Table 17."}, "[5]": {"details": "25° C./60% RH stability, Initial"}}, "data": [{"smiles": "C[S+]([O-])CCCCN=C=S.OCC1OC2OC3C(CO)OC(OC4C(CO)OC(OC5C(CO)OC(OC6C(CO)OC(OC7C(CO)OC(OC1C(O)C2O)C(O)C7O)C(O)C6O)C(O)C5O)C(O)C4O)C(O)C3O", "note": "(stereo not drawn) [Form 2]", "values": [{"measurement": "Stability at 25° C. (RH range in which the form is stable)", "setting": "[1]", "result": "Above 80% RH"}, {"measurement": "Typical water content", "setting": "[2]", "result": "13-20 % w/w"}]}, {"smiles": "C[S+]([O-])CCCCN=C=S.OC[C@H]1O[C@@H]2O[C@H]3[C@H](O)[C@@H](O)[C@@H](O[C@H]4[C@H](O)[C@@H](O)[C@@H](O[C@H]5[C@H](O)[C@@H](O)[C@@H](O[C@H]6[C@H](O)[C@@H](O)[C@@H](O[C@H]7[C@H](O)[C@@H](O)[C@@H](O[C@H]1[C@H](O)[C@H]2O)O[C@@H]7CO)O[C@@H]6CO)O[C@@H]5CO)O[C@@H]4CO)O[C@@H]3CO", "note": "[Form 3 (Example 5B-trial 5)]", "values": [{"measurement": "Related substances, HPLC RRT 0.56 (Dimer)", "setting": "[3]; 5° C. stability, 8 wk", "result": 0.15, "unit": "% Area"}, {"measurement": "Related substances, HPLC RRT 0.60 (α-CD adduct)", "setting": "[3]; 5° C. stability, 8 wk", "result": 0.42, "unit": "% Area"}, {"measurement": "Related substances, HPLC RRT 1.14 (Mixed dimer)", "setting": "[3]; 5° C. stability, 8 wk", "result": 0.05, "unit": "% Area"}, {"measurement": "Related substances, HPLC RRT 1.21 (Erysolin)", "setting": "[3]; 5° C. stability, 8 wk", "result": 0.29, "unit": "% Area"}, {"measurement": "Related substances, HPLC RRT 1.58 (Thioether dimer)", "setting": "[3]; 5° C. stability, 8 wk", "result": "<0.05", "unit": "% Area"}, {"measurement": "Related substances, Total Impurities", "setting": "[3]; 5° C. stability, 8 wk", "result": 1.30, "unit": "% Area"}, {"measurement": "Related substances, HPLC RRT 0.56 (Dimer)", "setting": "[3]; 5° C. stability, Initial", "result": 0.15, "unit": "% Area"}, {"measurement": "Related substances, HPLC RRT 0.60 (α-CD adduct)", "setting": "[3]; 5° C. stability, Initial", "result": 0.36, "unit": "% Area"}, {"measurement": "Related substances, HPLC RRT 1.14 (Mixed dimer)", "setting": "[3]; 5° C. stability, Initial", "result": "<0.05", "unit": "% Area"}, {"measurement": "Related substances, HPLC RRT 1.21 (Erysolin)", "setting": "[3]; 5° C. stability, Initial", "result": 0.28, "unit": "% Area"}, {"measurement": "Related substances, HPLC RRT 1.58 (Thioether dimer)", "setting": "[3]; 5° C. stability, Initial", "result": "<0.05", "unit": "% Area"}, {"measurement": "Related substances, Total Impurities", "setting": "[3]; 5° C. stability, Initial", "result": 1.16, "unit": "% Area"}, {"measurement": "Related substances, HPLC RRT 0.56 (Dimer)", "setting": "[3]; 25° C./60% RH stability, 8 wk", "result": 0.28, "unit": "% Area"}, {"measurement": "Related substances, HPLC RRT 0.60 (α-CD adduct)", "setting": "[3]; 25° C./60% RH stability, 8 wk", "result": 1.15, "unit": "% Area"}, {"measurement": "Related substances, HPLC RRT 1.14 (Mixed dimer)", "setting": "[3]; 25° C./60% RH stability, 8 wk", "result": 0.06, "unit": "% Area"}, {"measurement": "Related substances, HPLC RRT 1.21 (Erysolin)", "setting": "[3]; 25° C./60% RH stability, 8 wk", "result": 0.28, "unit": "% Area"}, {"measurement": "Related substances, HPLC RRT 1.58 (Thioether dimer)", "setting": "[3]; 25° C./60% RH stability, 8 wk", "result": "<0.05", "unit": "% Area"}, {"measurement": "Related substances, Total Impurities", "setting": "[3]; 25° C./60% RH stability, 8 wk", "result": 2.35, "unit": "% Area"}, {"measurement": "Related substances, HPLC RRT 0.56 (Dimer)", "setting": "[3]; [5]", "result": 0.15, "unit": "% Area"}, {"measurement": "Related substances, HPLC RRT 0.60 (α-CD adduct)", "setting": "[3]; [5]", "result": 0.36, "unit": "% Area"}, {"measurement": "Related substances, HPLC RRT 1.14 (Mixed dimer)", "setting": "[3]; [5]", "result": "<0.05", "unit": "% Area"}, {"measurement": "Related substances, HPLC RRT 1.21 (Erysolin)", "setting": "[3]; [5]", "result": 0.28, "unit": "% Area"}, {"measurement": "Related substances, HPLC RRT 1.58 (Thioether dimer)", "setting": "[3]; [5]", "result": "<0.05", "unit": "% Area"}, {"measurement": "Related substances, Total Impurities", "setting": "[3]; [5]", "result": 1.16, "unit": "% Area"}, {"measurement": "KF water content", "setting": "[4]; 2 weeks, 25° C./60% RH", "result": 3.3, "unit": "% w/w"}, {"measurement": "KF water content", "setting": "[4]; 4 weeks, 25° C./60% RH", "result": 2.6, "unit": "% w/w"}, {"measurement": "KF water content", "setting": "[4]; 8 weeks, 25° C./60% RH", "result": 3.6, "unit": "% w/w"}, {"measurement": "KF water content", "setting": "[4]; Initial, 25° C./60% RH study", "result": 2.9, "unit": "% w/w"}]}]}
